Active and inactive are the calls of the source. No cut-off for these calls is given here.
Assays:
[1] = Selectivity index, ratio of CC50 for human 293T/ACE2 cells to EC50 for SARS-CoV-2 Omicron; format: toxicity; conditions: read-out: Ratio CC50/EC50
[2] = tested on: SARS-CoV-2; assay: Antiviral activity against luciferase-expressing pseudovirus encoding SARS-CoV-2 Omicron expressing S protein infected in human 293T/ACE2 cells assessed as reduction of viral growth measured after 48 hrs by luciferase assay; format: functional, organism-based; conditions: Severe acute respiratory syndrome coronavirus 2, 293T/ACE2, 48 h
[3] = target: Spike glycoprotein/Angiotensin-converting enzyme 2 (Severe acute respiratory syndrome coronavirus 2) (UniProt Q9BYF1+P0DTC2); assay: Inhibition of SARS-COV-2 S1 protein/human ACE2 receptor interaction at 20 uM by co-immunoprecipitation assay
[4] = Cytotoxicity against human 293T/ACE2 cells assessed as reduction in cell growth measured after 48 hrs by MTT assay; format: functional
[5] = Stability of compound in rat plasma assessed as change in retention time of parent compound incubated for 180 mins by LC-MS/MS analysis; format: ADME, cell-free; conditions: 3 h
[6] = tested on: SARS-CoV-2; assay: Antiviral activity against luciferase-expressing pseudovirus encoding SARS-CoV-2 Omicron expressing S protein infected in human 293T/ACE2 cells assessed as reduction of viral growth at 0.078 to 10 uM measured after 48 hrs by luciferase assay; format: functional, organism-based; conditions: Severe acute respiratory syndrome coronavirus 2, dose 0.078-10 µM
[7] = tested on: SARS-CoV-2; assay: Antiviral activity against SARS-COV-2 Omicron expressing S protein and co-expressing EGFP infected in African green monkey Vero E6 cells assessed as inhibition of S protein mediated membrane fusion at 10 uM incubated of 30 mins measured after 24 hrs by inverted fluorescence microscopic analysis; format: functional, organism-based; conditions: Severe acute respiratory syndrome coronavirus 2, time 24.5 hrs
[8] = Metabolic stability in rat liver microsomes assessed as intrinsic clearance measured upto 250 mins by LC-MS/MS analysis; format: ADME, Microsome; conditions: 4.167 h
[9] = target: Spike glycoprotein (Severe acute respiratory syndrome coronavirus 2, UniProt P0DTC2); assay: Binding affinity to C-terminal 6His-tagged SARS-COV-2 recombinant S protein (Val16 to Arg685 residues) expressed in mammalian expression system assessed as dissociation constant by SPR analysis
[10] = tested on: Severe acute respiratory syndrome coronavirus 2; assay: Inhibition of 6-helical bundle formation in SARS-CoV-2 Spike protein HR1/HR2 domains in presence of HR-1P and HR2P at 20 uM incubated for 30 mins by circular dichroism spectroscopy assay
[11] = tested on: SARS-CoV-2; assay: Antiviral activity against vesicular stomatitis virus glycoprotein expressing pseudovirus encoding SARS-CoV-2 infected in human 293T/ACE2 cells assessed as reduction of viral growth at 0.078 to 10 uM measured after 48 hrs by luciferase assay; format: functional, organism-based; conditions: Severe acute respiratory syndrome coronavirus 2, dose 0.078-10 µM
[12] = Metabolic stability in rat liver microsomes assessed as half life measured upto 250 mins by LC-MS/MS analysis; format: ADME, Microsome; conditions: 4.167 h
[13] = tested on: SARS-CoV-2; assay: Antiviral activity against luciferase-expressing pseudovirus encoding SARS-CoV-2 Omicron S/HIV infected in human 293T/ACE2 cells assessed as reduction of viral growth at 10 uM measured after 48 hrs by luciferase assay relative to control; format: functional, Severe acute respiratory syndrome coronavirus 2; set-up: scale not given: the % may be the effect or the level left

| SMILES | selectivity ratio [1] | EC50 [2] [µM] | inhibition [3] | CC50 [4] [µM] | further results |
| --- | --- | --- | --- | --- | --- |
| C=C(C)[C@@H]1CC[C@]2(C(=O)Nc3ccccc3)CC[C@]3(C)[C@H](CC[C@@H]4[C@@]5(C)CC[C@H](O[C@@H]6O[C@H](CO)[C@@H](O[C@@H]7O[C@@H](C)[C@H](O)[C@@H](O)[C@H]7O)[C@H](O)[C@H]6O[C@@H]6O[C@@H](C)[C@H](O)[C@@H](O)[C@H]6O)C(C)(C)[C@@H]5CC[C@]43C)[C@@H]12 | > 16 | 12.5 | inactive | > 200 |  |
| C=C(C)[C@@H]1CC[C@]2(C(=O)Nc3ccc4ccccc4c3)CC[C@]3(C)[C@H](CC[C@@H]4[C@@]5(C)CC[C@H](O[C@@H]6O[C@H](CO)[C@@H](O[C@@H]7O[C@@H](C)[C@H](O)[C@@H](O)[C@H]7O)[C@H](O)[C@H]6O[C@@H]6O[C@@H](C)[C@H](O)[C@@H](O)[C@H]6O)C(C)(C)[C@@H]5CC[C@]43C)[C@@H]12 | 73.6 | 0.82 | inactive | 60.3 | Stability [5]: Stable; Activity [6]: Dose-Dependent Effect; Activity [7]: Active; CLH [8]: 1.15 µL/min/mg; Kd [9]: 3.26 µM; inhibition [10]: inactive; Activity [11]: inactive; t1/2 [12]: 2.8202 h; Activity [13]: 90% |
| C=C(C)[C@@H]1CC[C@]2(C(=O)Nc3ccc4ncccc4c3)CC[C@]3(C)[C@H](CC[C@@H]4[C@@]5(C)CC[C@H](O[C@@H]6O[C@H](CO)[C@@H](O[C@@H]7O[C@@H](C)[C@H](O)[C@@H](O)[C@H]7O)[C@H](O)[C@H]6O[C@@H]6O[C@@H](C)[C@H](O)[C@@H](O)[C@H]6O)C(C)(C)[C@@H]5CC[C@]43C)[C@@H]12 | 8.25 | 8.43 |  | 69.6 |  |
| C=C(C)[C@@H]1CC[C@]2(C(=O)Nc3ccc(OC)cc3)CC[C@]3(C)[C@H](CC[C@@H]4[C@@]5(C)CC[C@H](O[C@@H]6O[C@H](CO)[C@@H](O[C@@H]7O[C@@H](C)[C@H](O)[C@@H](O)[C@H]7O)[C@H](O)[C@H]6O[C@@H]6O[C@@H](C)[C@H](O)[C@@H](O)[C@H]6O)C(C)(C)[C@@H]5CC[C@]43C)[C@@H]12 | 18.9 | 9.44 |  | 178 |  |
| C=C(C)[C@@H]1CC[C@]2(C(=O)NCc3ccc4ccccc4c3)CC[C@]3(C)[C@H](CC[C@@H]4[C@@]5(C)CC[C@H](O[C@@H]6O[C@H](CO)[C@@H](O[C@@H]7O[C@@H](C)[C@H](O)[C@@H](O)[C@H]7O)[C@H](O)[C@H]6O[C@@H]6O[C@@H](C)[C@H](O)[C@@H](O)[C@H]6O)C(C)(C)[C@@H]5CC[C@]43C)[C@@H]12 | 62.7 | 2.67 | inactive | 167 |  |
| C=C(C)[C@@H]1CC[C@]2(C(=O)NCCc3ccccc3)CC[C@]3(C)[C@H](CC[C@@H]4[C@@]5(C)CC[C@H](O[C@@H]6O[C@H](CO)[C@@H](O[C@@H]7O[C@@H](C)[C@H](O)[C@@H](O)[C@H]7O)[C@H](O)[C@H]6O[C@@H]6O[C@@H](C)[C@H](O)[C@@H](O)[C@H]6O)C(C)(C)[C@@H]5CC[C@]43C)[C@@H]12 | 26.7 | 8.47 |  | 226 |  |
| O=C(/C=C/c1ccc(O)c2oc(-c3ccc(O)c(O)c3)cc12)O[C@H](Cc1ccc(O)c(O)c1)C(=O)O | > 17.8 | 5.63 |  | > 100 |  |
| C=C(C)[C@@H]1CC[C@]2(C(=O)Nc3ccccc3OC)CC[C@]3(C)[C@H](CC[C@@H]4[C@@]5(C)CC[C@H](O[C@@H]6O[C@H](CO)[C@@H](O[C@@H]7O[C@@H](C)[C@H](O)[C@@H](O)[C@H]7O)[C@H](O)[C@H]6O[C@@H]6O[C@@H](C)[C@H](O)[C@@H](O)[C@H]6O)C(C)(C)[C@@H]5CC[C@]43C)[C@@H]12 | 13.6 | 6.11 |  | 83.2 |  |
| C=C(C)[C@@H]1CC[C@]2(C(=O)Nc3ccc(Cl)cc3)CC[C@]3(C)[C@H](CC[C@@H]4[C@@]5(C)CC[C@H](O[C@@H]6O[C@H](CO)[C@@H](O[C@@H]7O[C@@H](C)[C@H](O)[C@@H](O)[C@H]7O)[C@H](O)[C@H]6O[C@@H]6O[C@@H](C)[C@H](O)[C@@H](O)[C@H]6O)C(C)(C)[C@@H]5CC[C@]43C)[C@@H]12 | 13.5 | 6.5 |  | 87.5 |  |

Reference: ChEMBL document CHEMBL5370556, “Optimization, and biological evaluation of 3-O-β-chacotriosyl betulinic acid amide derivatives as novel small-molecule Omicron” (Eur J Med Chem, 2023)
